What was measured:
liver gene expression = test: Hepatic gene expression profiling by microarray; format: in vivo, mice
Text: (§1) Total DNA and total RNA was extracted from the mouse liver by the Wizard® Genomic DNA purification Kit (Promega) and RNeasy Mini Kit (Qiagen), respectively, according to the manufacturers instructions. Total RNA was reverse transcribed to cDNA using the Verso™ cDNA Synthesis Kit (Thermo Scientific). To generate standards for each target gene expression analysis, the DNA or cDNA region of interest was PCR-amplified and the PCR product was cloned using the pGEM-Teasy vector system (Promega). qPCR was performed with a LightCycler 480 SYBR Green I Master (Roche) and run in a LightCycler 480 system (Roche). Target mRNA was normalized to GAPDH mRNA as an internal control in each sample.
Expression profiling of the STAT and control animal groups (n=6 each) was performed using the Affymetrix Genechip system (Affymetrix, Santa Clara, Calif.). Total RNA quality and quantity were determined using the Agilent 2100 Bioanalyzer and Nanodrop ND-1000. Total RNA (100 ng) was used to prepare cDNA following the Affymetrix 3′IVT Express Kit labeling protocol (Affymetrix). Standardized array processing procedures recommended by Affymetrix were performed, including hybridization, fluidics processing and scanning of the Affymetrix MG-430 2.0 arrays. GeneSpring GX11 software (Agilent Technologies, Santa Clara, Calif.) was used to normalize the raw data (Affymetrix CEL files) by Robust Multichip Average algorithm (RMA).

[1] = Sub-therapeutic antibiotic treatment (STAT) in drinking water: growth and body composition by weighing, DEXA and MRI; format: in vivo, C57BL6/J mice; details: vs control
Experimental: Low dose penicillin (6.67 mg/L) was administered in the drinking water of C57BL6/J mice either at birth (day 0, antibiotics initially received through maternal milk) or at weaning (day 28); control mice received no antibiotics. All mice were given ad libitum access to food and water, and mice were fed either standard chow (13.5% kcal from fat) or high fat diet (45% kcal from fat). Mice were weighed daily and body composition was analyzed by dual energy x-ray absorptiometry (DEXA) and magnetic resonance imaging (MRI.)
C57B6 breeder mice (F0) were obtained at 6 weeks of age from Jackson Laboratory. One male was mated with 2 females to create the F1 generation. Males and females were separated after pregnancy was detected. On day 14 of pregnancy, STAT breeder females were exposed to penicillin so that their offspring would be exposed to antibiotics from birth; control breeders had no antibiotic exposure. From the F1 generation, penicillin-treated and control mice at or near the median weight of their group were selected at 12 weeks of age to become breeders, and to produce the F2 generation. Breeder mice and offspring were maintained on their current treatment (either control or penicillin). […]
The litters were monitored closely and the following information was collected: mating pairs, date of birth, litter number, number born, number weaned, animal number, gender, and generation number. […]
Mice were anesthetized using isofluorane. Total body mass, lean mass, fat mass, body fat percentage, and bone mineral density were measured using the Lunar PIXImus densitometer. […]
Mice were anaesthetized with isofluorane. Body temperature and breathing rate were continuously monitored throughout the scan, and body temperature was maintained by flowing warm air through the coil. […] Total body fat percentage was calculated by merging the two images to generate a fat fraction image. […] The fat volume was calculated by multiplying total volume of the VOI by the mean fat %. To determine liver adiposity, 5 consecutive slices of the liver were traced to generate a liver VOI, and the average percent fat was recorded. […]

[2] = system: butyryl coA transferase (BCoAT) gene; test: Degenerate quantitative PCR for BCoAT on fecal specimens; format: in vivo, mice
Experimental: (§2) Quantitative PCR assays to assess for taxa of interest were performed on a Rotor Gene 3000 quantitative PCR cycler using the LightCycler FastStart DNA Master PLUS SYBR Green I kit (Roche, Indianapolis Ind.) according to the manufacturer's instructions. Quantitative assays to assess total microbial census were performed for Bacteria using 16S rRNA and Fungi using ITS sequences. Quantitative assays were also performed for butyryl CoA transferase (BCoAT) and formyltetrahydrofolate synthetase (FTHFS). Values were normalized using total Bacterial 16S copies prior to analyses.
(§3) Because of the central role of short-chain fatty acid synthesis in colonic metabolism (Wong et al., J Clin Gastroenterol 40, 235-243 (2006)), the effect of STAT exposure on the prokaryotic genes butyryl coA transferase (BCoAT) and formyltetrahydrofolate synthetase (FTHFS) that play roles in butyrate and acetate synthesis was examined Degenerate quantitative PCRs for BCoAT and FTHFS (primers listed in Table 1) were performed on fecal specimens in STAT (penicillin) and control mice. […] These findings provide evidence that STAT exposure perturbs not only GI microbiome, composition but also abundance of genes critical to host energy homeostasis.

[3] = system: formyltetrahydrofolate synthetase (FTHFS) gene; test: Degenerate quantitative PCR for FTHFS on fecal specimens; format: in vivo, mice; details: vs control
Experimental: as §2, §3

PPARγ = test: Hepatic qPCR normalized to GAPDH; format: in vivo, mice; details: liver qPCR, vs control
Text: as §1

[4] = system: insulin receptor substrate 2 (IRS-2); test: Hepatic qPCR normalized to GAPDH; format: in vivo, mice; details: liver, vs control; same direction as microarrays
Text: as §1

[5] = system: fatty acid translocase (FAT, CD36); test: Hepatic qPCR normalized to GAPDH; format: in vivo, mice; details: liver qPCR, vs control
Text: as §1

SREBP1c = test: Hepatic qPCR normalized to GAPDH; format: in vivo, mice; details: liver, vs control; same direction as microarrays
Text: as §1

penicillin
Genes significantly up- or down-regulated by t-test or PTM (liver gene expression; >45,000 genes surveyed, vs control): 466 genes
Genes significantly differed from controls by both tests (liver gene expression; t-test and PTM): 397 genes
Genes differentially expressed, fatty acid metabolism pathways (liver gene expression; vs control): 22 genes
Genes differentially expressed, lipid metabolic processes (liver gene expression; vs control): 47 genes
Weight at 21 days ([1]; F1 generation, female mice): significantly decreased
Weight at 21 days ([1]; F1 generation, sex not given): no difference
Weight at 21 days ([1]; F2 generation, both females and males): significantly increased
BCoAT gene copies ([2]; at 3 weeks): 193±22 normalized copies
BCoAT gene copies ([2]; by 7 weeks, vs control): normalized
FTHFS gene copies ([3]; at 3 weeks): no significant differences
FTHFS gene copies ([3]; by 7 weeks): significantly higher
PPARγ normalized gene counts (PPARγ): significantly higher
IRS-2 qPCR result [4]: not statistically significant
FAT normalized gene counts [5]: significantly higher
SREBP1c qPCR result (SREBP1c): not statistically significant
